Assay results: ChEMBL document CHEMBL1201862, “PubChem BioAssay data set” (2004)
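Briefly, cells in 96-well plates were exposed to five compound concentrations for 48 h, and endpoints were estimated by linear interpolation. GI50 marks 50% less growth.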 Active and inactive are the calls of the source. No stated cut-off is given here; in the data, active = GI50 up to about 1.1 µM and inactive = higher.

Experiments:
Assay in all cases: NCI anticancer screen, dose series, 48 h
786-0 = system: 786-0
A498 = system: A498
A549 = system: A549
ACHN = system: ACHN
BT-549 = system: BT-549
CAKI-1 = system: CAKI-1
CCRF-CEM = system: CCRF-CEM
COLO 205 = system: COLO 205
DU-145 = system: DU-145
EKVX = system: EKVX
HCT-116 = system: HCT-116
HCT-15 = system: HCT-15
HL-60 = system: HL-60
HOP-62 = system: HOP-62
HOP-92 = system: HOP-92
HT-29 = system: HT-29
Hs-578T = system: Hs-578T
IGROV-1 = system: IGROV-1
K562 = system: K562
KM12 = system: KM12
LOX IMVI = system: LOX IMVI
M14 = system: M14
MCF7 = system: MCF7
MDA-MB-231 = system: MDA-MB-231
MDA-MB-435 = system: MDA-MB-435
MDA-N = system: MDA-N
MOLT-4 = system: MOLT-4
Malme-3M = system: Malme-3M
NCI-H226 = system: NCI-H226
NCI-H23 = system: NCI-H23
NCI-H460 = system: NCI-H460
NCI-H522 = system: NCI-H522
NCI/ADR-RES = system: NCI/ADR-RES
OVCAR-3 = system: OVCAR-3
OVCAR-4 = system: OVCAR-4
OVCAR-5 = system: OVCAR-5
OVCAR-8 = system: OVCAR-8
PC-3 = system: PC-3
RXF 393 = system: RXF 393
SF-268 = system: SF-268
SF-295 = system: SF-295
SF-539 = system: SF-539
SK-MEL-28 = system: SK-MEL-28
SK-MEL-2 = system: SK-MEL-2
SK-MEL-5 = system: SK-MEL-5
SK-OV-3 = system: SK-OV-3
SN12C = system: SN12C
SNB-19 = system: SNB-19
SNB-75 = system: SNB-75
SR = system: SR
SW-620 = system: SW-620
T47D = system: T47D
TK-10 = system: TK-10
U-251 = system: U-251
UACC-257 = system: UACC-257
UACC-62 = system: UACC-62
UO-31 = system: UO-31

Cc1cc(C)c2c(=O)n(CN3CCC(C#N)(c4ccccc4)CC3)sc2n1
GI50 (786-0): 22.7 µM (inactive) | GI50 (A498): > 100 µM (inactive) | GI50 (A549): 97.9 µM (inactive) | GI50 (ACHN): 21.7 µM (inactive) | GI50 (BT-549): 91.2 µM (inactive) | GI50 (CAKI-1): 39.3 µM (inactive) | GI50 (CCRF-CEM): 20.3 µM (inactive) | GI50 (COLO 205): 30.8 µM (inactive) | GI50 (DU-145): > 100 µM (inactive) | GI50 (EKVX): 52.7 µM (inactive) | GI50 (HCT-116): > 100 µM (inactive) | GI50 (HCT-15): 39.1 µM | GI50 (HL-60): 18.5 µM (inactive) | GI50 (HOP-62): 44.1 µM (inactive) | GI50 (HOP-92): 88.1 µM (inactive) | GI50 (HT-29): 39.9 µM (inactive) | GI50 (Hs-578T): 47.8 µM (inactive) | GI50 (IGROV-1): > 100 µM (inactive) | GI50 (K562): 54 µM (inactive) | GI50 (KM12): > 100 µM (inactive) | GI50 (LOX IMVI): 26.2 µM (inactive) | GI50 (M14): 50.2 µM (inactive) | GI50 (MCF7): 62.5 µM (inactive) | GI50 (MDA-MB-231): > 100 µM (inactive) | GI50 (MDA-MB-435): 24.4 µM (inactive) | GI50 (MDA-N): 29.6 µM (inactive) | GI50 (MOLT-4): 49.4 µM (inactive) | GI50 (Malme-3M): 22.5 µM (inactive) | GI50 (NCI-H226): > 100 µM (inactive) | GI50 (NCI-H23): 34.4 µM (inactive) | GI50 (NCI-H460): 40.4 µM (inactive) | GI50 (NCI-H522): 14.3 µM (inactive) | GI50 (NCI/ADR-RES): 51.1 µM (inactive) | GI50 (OVCAR-3): 83 µM (inactive) | GI50 (OVCAR-4): 30.3 µM (inactive) | GI50 (OVCAR-5): 30.9 µM (inactive) | GI50 (OVCAR-8): 28.6 µM (inactive) | GI50 (PC-3): 76.7 µM (inactive) | GI50 (RXF 393): 26.3 µM (inactive) | GI50 (SF-268): 40 µM (inactive) | GI50 (SF-295): > 100 µM (inactive) | GI50 (SF-539): 31.3 µM (inactive) | GI50 (SK-MEL-28): 42.5 µM (inactive) | GI50 (SK-MEL-2): > 100 µM (inactive) | GI50 (SK-MEL-5): 72.1 µM (inactive) | GI50 (SK-OV-3): > 100 µM (inactive) | GI50 (SN12C): > 100 µM (inactive) | GI50 (SNB-19): > 100 µM (inactive) | GI50 (SNB-75): 37.7 µM (inactive) | GI50 (SR): 49.9 µM (inactive) | GI50 (SW-620): 24.4 µM (inactive) | GI50 (T47D): > 100 µM (inactive) | GI50 (TK-10): 25.6 µM (inactive) | GI50 (U-251): > 100 µM (inactive) | GI50 (UACC-257): 22.2 µM (inactive) | GI50 (UACC-62): > 100 µM (inactive) | GI50 (UO-31): 17.8 µM (inactive)
